Data taken from patent USRE46511E1, “Fused pyrimidine derivatives for inhibition of tyrosine kinase activity” (HANMI SCIENCE CO., LTD., priority 2010, dated 2017).

What was measured:
[1] = tested on: HCC827 (EGFR DelE746_A750); experiment: Inhibition test for growth of cancer cell expressing EGFR (SRB), HCC827; format: cell-based; details: Homo sapiens, HCC827, 72 h, HCC827 cells, 72 hours, SRB; read-out: GI50 HCC827 EGFR DelE746_A750;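 further: cells in 96-well plates exposed to tenfold serial dilutions from 100 µM, fixed with trichloroacetic acid, SRB-stained, absorbance read at 540 nm, DMSO under 1%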
[2] = tested on: NCI-H1975 (EGFR L858R/T790M); experiment: Inhibition test for growth of cancer cell expressing EGFR (MTS), NCI-H1975; format: cell-based; details: Homo sapiens; NCI-H1975 cells, 48 hours, MTS; read-out: GI50 NCI-H1975 EGFR L858R/T790M

Row | Compound | GI50 [1] [nM] | GI50 [2] [nM]
1 | C=CC(=O)Nc1cccc(Oc2nc(Nc3ccc(C(=O)N4CCN(S(=O)(=O)CC)CC4)c(Cl)c3)nc3ccsc23)c1 [Example 144] | < 50 | 50 to 100
2 | C=CC(=O)Nc1cccc(Oc2nc(Nc3ccc(CN4CCN(C5CCN(C)CC5)CC4)c(Cl)c3)nc3ccsc23)c1 [Example 202] | 50 to 100 | < 50
3 | C=CC(=O)Nc1cccc(Oc2nc(Nc3ccc(N4CCC(N5CCCC5)CC4)c(Cl)c3)nc3ccsc23)c1 [Example 138] | < 50 | < 50
4 | C=CC(=O)Nc1cccc(Sc2nc(Nc3ccc(C4CCN(C)CC4)c(F)c3)nc3ccsc23)c1 [Example 225] | < 50 | < 50
5 | C=CC(=O)Nc1cccc(Oc2nc(Nc3ccc(C(=O)NC4CCN(C)CC4)c(OC)c3)nc3ccsc23)c1 [Example 118] | < 50 | 50 to 100
6 | C=CC(=O)Nc1cccc(Nc2nc(Nc3ccc(CN4CCCCC4)cc3)nc3ccsc23)c1 [Example 221] | < 50 | < 50
7 | C=CC(=O)Nc1cccc(Oc2nc(Nc3ccc(CN4CCC(N(C)C)CC4)c(F)c3)nc3ccsc23)c1 [Example 196] | < 50 | 50 to 100
8 | C=CC(=O)Nc1cccc(Oc2nc(Nc3ccc(OCCN(C)C)c(F)c3)nc3ccsc23)c1 [Example 132] | < 50 | < 50
9 | C=CC(=O)Nc1cccc(Oc2nc(Nc3ccc(N4CCC(N5CCOCC5)CC4)c(F)c3)nc3ccsc23)c1 [Example 126] | < 50 | < 50
10 | C=CC(=O)Nc1cccc(Oc2nc(Nc3ccc(N4CC(C)OC(C)C4)c(F)c3)nc3ccsc23)c1 (stereo not drawn) [Example 123] | 50 to 100 | 50 to 100
11 | C=CC(=O)Nc1cccc(Nc2nc(Nc3ccc(NC4CCN(C)CC4)c(F)c3)nc3ccsc23)c1 [Example 217] | < 50 | 50 to 100
12 | C=CC(=O)Nc1cccc(Oc2nc(Nc3ccc4c(ccn4C)c3)nc3ccsc23)c1 [Example 111] | 50 to 100 | < 50
13 | C=CC(=O)Nc1cccc(Oc2nc(Nc3ccc(N4CCN(C)CC4)c(F)c3OC)nc3ccsc23)c1 [Example 6] | 50 to 100 | < 50
14 | C=CC(=O)Nc1cccc(Oc2nc(Nc3ccc(OCCN(CC)CC)c(F)c3)nc3ccsc23)c1 [Example 133] | < 50 | < 50
15 | C=CC(=O)Nc1cccc(Oc2nc(Nc3ccc(C4CCN(C)CC4)c(F)c3)nc3ccoc23)c1 [Example 235] | < 50 | < 50
16 | C=CC(=O)Nc1cccc(Nc2nc(Nc3ccc(C4CCN(C)CC4)cc3)nc3ccsc23)c1 [Example 209] | < 50 | < 50
17 | C=CC(=O)Nc1cccc(Oc2nc(Nc3ccc(N4CCC(N5CCCC5)CC4)c(F)c3)nc3ccsc23)c1 [Example 124] | < 50 | < 50
18 | C=CC(=O)Nc1cccc(Oc2nc(Nc3ccc(N4CCC(N5CCOCC5)CC4)c(Cl)c3)nc3ccsc23)c1 [Example 139] | < 50 | < 50
19 | C=CC(=O)Nc1cccc(Nc2nc(Nc3ccc(C4CCN(C)CC4)c(F)c3)nc3ccsc23)c1 [Example 216] | < 50 | < 50
20 | C=CC(=O)Nc1cccc(Oc2nc(Nc3ccc(C(=O)OCCCN(C)C)cc3)nc3ccsc23)c1 [Example 93] | 50 to 100 | 50 to 100
21 | C=CC(=O)Nc1cccc(Oc2nc(Nc3ccc(NC(=O)N4CCN(C)CC4)c(F)c3)nc3ccsc23)c1 [Example 201] | < 50 | 50 to 100
22 | C=CC(=O)Nc1cccc(Oc2nc(Nc3ccc(OC4CCN(C)CC4)c(F)c3)nc3ccsc23)c1 [Example 136] | < 50 | < 50
23 | C=CC(=O)Nc1cccc(Oc2nc(Nc3ccc(CN(C)C)cc3C)nc3ccsc23)c1 [Example 205] | < 50 | < 50
24 | C=CC(=O)Nc1cccc(Oc2nc(Nc3ccc(C(=O)N(C)C)c(Cl)c3)nc3ccsc23)c1 [Example 143] | 50 to 100 | < 50

Now from value to compound:

Row | GI50 [1] [nM] | GI50 [2] [nM] | Compound
25 | < 50 | < 50 | C=CC(=O)Nc1cccc(Oc2nc(Nc3ccc(N4CCC(N5CCOCC5)CC4)cc3)nc3ccsc23)c1 [Example 49]
26 | < 50 | < 50 | C=CC(=O)Nc1cccc(Oc2nc(Nc3ccc(CN4CCC4)cc3)nc3ccsc23)c1 [Example 175]
27 | 50 to 100 | < 50 | C=CC(=O)Nc1cccc(Oc2nc(Nc3ccc(N4CCN(S(=O)(=O)CC)CC4)c(F)c3)nc3ccsc23)c1 [Example 121]
28 | 50 to 100 | < 50 | C=CC(=O)Nc1cccc(Oc2nc(Nc3ccc(S(C)(=O)=O)cc3)nc3ccsc23)c1 [Example 69]
29 | < 50 | < 50 | C=CC(=O)Nc1cccc(Oc2nc(Nc3ccc(N4CCN(CCO)CC4)cc3)nc3ccsc23)c1 [Example 18]
30 | < 50 | < 50 | C=CC(=O)Nc1cccc(Oc2nc(Nc3ccc(N4CCC(C(=O)N(C)C)CC4)cc3)nc3ccsc23)c1 [Example 45]
31 | < 50 | < 50 | C=CC(=O)Nc1cccc(Oc2nc(Nc3ccc(N4CCN(C(=O)CN(C)C)CC4)c(F)c3)nc3ccsc23)c1 [Example 119]
32 | < 50 | < 50 | C=CC(=O)Nc1cccc(Oc2nc(Nc3ccc(N4CC(C)N(C)C(C)C4)cc3)nc3ccsc23)c1 (stereo not drawn) [Example 27]
33 | < 50 | < 50 | C=CC(=O)Nc1cccc(Oc2nc(Nc3ccc(N4CCN(C(C)(C)C)CC4)cc3)nc3ccsc23)c1 [Example 12]
34 | < 50 | < 50 | C=CC(=O)Nc1cccc(Oc2nc(Nc3ccc(N4CCC(n5ccnc5)CC4)cc3)nc3ccsc23)c1 [Example 46]
35 | < 50 | < 50 | C=CC(=O)Nc1cccc(Nc2nc(Nc3ccc(N4CCN(C(C)C)CC4)cc3)nc3ccsc23)c1 [Example 208]
36 | 50 to 100 | 50 to 100 | C=CC(=O)Nc1cccc(Oc2nc(Nc3ccc(C(=O)NC)cc3)nc3ccsc23)c1 [Example 78]
37 | < 50 | < 50 | C=CC(=O)Nc1cccc(Oc2nc(Nc3ccc(N4CCN(CCOC)CC4)cc3)nc3ccsc23)c1 [Example 17]
38 | < 50 | < 50 | C=CC(=O)Nc1cccc(Oc2nc(Nc3ccc(NC(=O)CCN4CCCC4)cc3)nc3ccsc23)c1 [Example 92]
39 | < 50 | < 50 | C=CC(=O)Nc1cccc(Oc2nc(Nc3ccc(CCO)cc3)nc3ccsc23)c1 [Example 190]
40 | 50 to 100 | < 50 | C=CC(=O)Nc1cccc(Oc2nc(Nc3ccc(N4CCN(CC(F)(F)F)CC4)cc3)nc3ccsc23)c1 [Example 16]
41 | 50 to 100 | < 50 | C=CC(=O)Nc1cccc(Oc2nc(Nc3ccc(OCCN4CCOCC4)c(F)c3)nc3ccsc23)c1 [Example 135]
42 | 50 to 100 | < 50 | C=CC(=O)Nc1cccc(Oc2nc(Nc3ccc(NC(=O)N4CCN(C)CC4)cc3)nc3ccsc23)c1 [Example 172]
43 | < 50 | < 50 | C=CC(=O)Nc1cccc(Oc2nc(Nc3ccc(CCN4CCCCC4)cc3)nc3ccsc23)c1 [Example 98]
44 | < 50 | < 50 | C=CC(=O)Nc1cccc(Oc2nc(Nc3ccc(N4CCC(N(C)C)CC4)cc3)nc3ccsc23)c1 [Example 38]
45 | < 50 | < 50 | C=CC(=O)Nc1cccc(Oc2nc(Nc3ccc(N4CCC(n5ccnc5)C4)cc3)nc3ccsc23)c1 (stereo not drawn) [Example 35]
